In US20060094695A1, “Hypoestoxides, derivatives and agonists thereof for use in the prophylaxis and treatment of obesity” (Paraquest, Inc., priority 2004, published 2006):

Experiments:
C57BL/6J-Lep^ob mice [1] = assay: Prevention of Obesity in Mice (Table 1); assay type: in vivo; details: 4-week-old female mice, in g
Method: The ability of hypoestoxides and hypoestes rosea dried leaf powder to prevent obesity was studied. Hypoestoxide and hypoestes rosea dried leaf powder was administered to C57BL/6J-Lep^ob mice. The mice are homozygous for the obese spontaneous mutation and are first recognizable as such at approximately 4 weeks of age. At 4 weeks, the mice weigh 20-25 grams, and may reach three to four times the weight of wild-type mice. Three 4-week-old female mice were placed in each of four treatment conditions, for a total of twelve mice in the study: (i) control; (ii) hypoestoxide was administered orally at a dose of 10 mg/kg; (iii) hypoestoxide was administered orally at a dose of 100 mg/kg; or (iv) hypoestes dried leaf powder was administered orally at a dose of 100 mg/kg. Treatments were administered once a day and the study continued for 21 days.

C57BL/6J-Lep^ob mice [2] = assay: Treatment of Obesity in Mice (Table 2); assay type: in vivo; details: 10 mg/kg orally once a day for 50 days, approx. 4 months old, one mouse
Method: Treatment of obesity with hypoestoxide and hypoestes rosea dried leaf powder was also studied. Hypoestoxide and hypoestes rosea dried leaf powder was administered to C57BL/6J-Lep^ob mice. The mice were treated at approximately 4 months of age at a weight of approximately 50 grams. One mouse was placed in each of three treatment conditions: (i) control; (ii) hypoestoxide was administered orally at a dose of 10 mg/kg; or (iii) hypoestes dried leaf powder was administered orally at a dose of 100 mg/kg. Treatments were administered once a day, with hypoestoxide treatment lasting 50 days and hypoestes dried leaf powder treatment lasting 21 days.

With `C=C1C(=O)C[C@H]2C[C@@H]3O[C@@]3(C)CC[C@@H]3O[C@@]3(C)C[C@@H](OC(C)=O)[C@H]1C2(C)C` [Hypoestoxide, hypoestoxide] the “weight of mice, Prevention of Obesity in Mice” value (from here on “weight of mice”) (C57BL/6J-Lep^ob mice [1]; 10 mg/kg orally once a day for 21 days) was 41.6 ± 2.0, the “weight of mice” value (C57BL/6J-Lep^ob mice [1]; 100 mg/kg orally once a day for 21 days) was 40.0 ± 1.5 and the “weight of mice” value (C57BL/6J-Lep^ob mice [1]; day 7, 10 mg/kg orally once a day for 21 days) was 19.6 ± 2.0. The “weight of mice” value (C57BL/6J-Lep^ob mice [1]; day 7, 100 mg/kg orally once a day for 21 days) was 20.9 ± 1.2, the “weight of mice” value (C57BL/6J-Lep^ob mice [1]; day 14, 10 mg/kg orally once a day for 21 days) was 25.4 ± 1.6 and the “weight of mice” value (C57BL/6J-Lep^ob mice [1]; day 14, 100 mg/kg orally once a day for 21 days) was 23.8 ± 0.6. The “weight of mice” value (C57BL/6J-Lep^ob mice [1]; day 21, 10 mg/kg orally once a day for 21 days) was 27.5 ± 1.5, the “weight of mice” value (C57BL/6J-Lep^ob mice [1]; day 21, 100 mg/kg orally once a day for 21 days) was 27.0 ± 0.8 and the “weight of mice” value (C57BL/6J-Lep^ob mice [1]; day 28, 10 mg/kg orally once a day for 21 days) was 28.8 ± 2.3. The “weight of mice” value (C57BL/6J-Lep^ob mice [1]; day 28, 100 mg/kg orally once a day for 21 days) was 26.4 ± 2.2, the “weight of mice” value (C57BL/6J-Lep^ob mice [1]; day 35, 10 mg/kg orally once a day for 21 days) was 30.3 ± 3.2 and the “weight of mice” value (C57BL/6J-Lep^ob mice [1]; day 35, 100 mg/kg orally once a day for 21 days) was 29.0 ± 2.9. For the same compound, the “weight of mice” value (C57BL/6J-Lep^ob mice [1]; day −1 (before treatment), group 10 mg/kg orally once a day for 21 days) was 21.0 ± 1.4, the “weight of mice” value (C57BL/6J-Lep^ob mice [1]; day −1 (before treatment), group 100 mg/kg orally once a day for 21 days) was 24.3 ± 1.1 and the weight of mouse, Treatment of Obesity in Mice (C57BL/6J-Lep^ob mice [2]; day 7) was 53 g. The weight of mouse, Treatment of Obesity in Mice (C57BL/6J-Lep^ob mice [2]; day 14) was 51.5 g, the weight of mouse, Treatment of Obesity in Mice (C57BL/6J-Lep^ob mice [2]; day 21) was 51 g and the weight of mouse, Treatment of Obesity in Mice (C57BL/6J-Lep^ob mice [2]; day 28) was 50.4 g. For the same compound, the weight of mouse, Treatment of Obesity in Mice (C57BL/6J-Lep^ob mice [2]; day 35) was 50 g, the weight of mouse, Treatment of Obesity in Mice (C57BL/6J-Lep^ob mice [2]; day 160) was 69.8 g and the weight of mouse, Treatment of Obesity in Mice (C57BL/6J-Lep^ob mice [2]; day −1 (before treatment)) was 53 g.
